Assays:
HCV replicon genotype 1a = assay: microbe, parasite or virus in culture; type: cell-based; details: Hepatitis C virus, 96 h, HCV genotype 1a replicon cells, 96 hours incubation, NS3/4A ELISA readout
HCV replicon genotype 1b = assay: microbe, parasite or virus in culture; type: cell-based; details: Hepatitis C virus, 96 h, HCV genotype 1b replicon cells, 96 hours incubation, NS3/4A ELISA readout

Row | SMILES | IC50 (HCV replicon genotype 1a) | IC50 (HCV replicon genotype 1b)
1 | CNC(=O)c1c(-c2ccc(F)cc2)oc2cc(N(C)S(C)(=O)=O)c(-c3ccc4onc(-c5ccccc5)c4c3)cc12 [Compound 83, 2-(4-fluorophenyl)-N-methyl-6-(N-methylmethylsulfonamido)-5-(3-phenylbenzo[d]isoxazol-5-yl)benzofuran-3-carboxamide] | 23.6 nM | 14.7 nM
2 | CNC(=O)c1c(-c2ccc(F)cc2)oc2cc(N(C)S(C)(=O)=O)c(-c3ccc4oc(Cc5ccc(F)cc5)nc4n3)cc12 [Compound 84, 5-(2-(4-fluorobenzyl)oxazolo[4,5-b]pyridin-5-yl)-2-(4-fluorophenyl)-N-methyl-6-(N-methylmethylsulfonamido)benzofuran-3-carboxamide] | 53.7 nM | 8.6 nM
3 | CNC(=O)c1c(-c2ccc(F)cc2)oc2cc(N(C)S(C)(=O)=O)c(-c3cccc4nc(-c5ccccc5)oc34)cc12 [Compound 85] | 460 nM | 235 nM
4 | CNC(=O)c1c(-c2ccc(F)cc2)oc2cc(N(C)S(C)(=O)=O)c(-c3cccc4nc(-c5ccc(F)cc5)oc34)cc12 [Compound 86] | 714 nM | 304 nM
5 | CNC(=O)c1c(-c2ccc(F)cc2)oc2cc(N(C)S(C)(=O)=O)c(-c3ccc4oc(-c5ccc(F)cc5)nc4c3)cc12 [Compound 87] | 51.5 nM | 10.8 nM
6 | CNC(=O)c1c(-c2ccc(F)cc2)oc2cc(N(C)S(C)(=O)=O)c(-c3ccc4nc(-c5ccccc5)cn4c3)cc12 [Compound 88, 2-(4-fluorophenyl)-N-methyl-6-(N-methylmethylsulfonamido)-5-(2-phenylimidazo[1,2-a]pyridin-6-yl)benzofuran-3-carboxamide] | 50.1 nM | 7 nM
7 | CNC(=O)c1c(-c2ccc(F)cc2)oc2cc(N(C)S(C)(=O)=O)c(-c3ccn4cc(-c5ccccc5)nc4c3)cc12 [Compound 89] | 7 nM | 2.7 nM
8 | CNC(=O)c1c(-c2ccc(F)cc2)oc2cc(N(C)S(C)(=O)=O)c(-c3cn4ccnc4cn3)cc12 [Compound 90, 2-(4-fluorophenyl)-5-(imidazo[1,2-a]pyrazin-6-yl)-N-methyl-6-(N-methylmethylsulfonamido)benzofuran-3-carboxamide] | 2180 nM | 120 nM
9 | CNC(=O)c1c(-c2ccc(F)cc2)oc2cc(N(C)S(C)(=O)=O)c(-c3cn4c(-c5ccc(F)cc5)cnc4cn3)cc12 [Compound 91, 2-(4-fluorophenyl)-5-(3-(4-fluorophenyl)imidazo[1,2-a]pyrazin-6-yl)-N-methyl-6-(N-methylmethylsulfonamido)benzofuran-3-carboxamide] | 48.2 nM | 8.1 nM
10 | CNC(=O)c1c(-c2ccc(F)cc2)oc2cc(N(C)S(C)(=O)=O)c(-c3cn4c(-c5ccc(C(F)(F)F)cc5)cnc4cn3)cc12 [Compound 92] | 12.9 nM | 5.1 nM
11 | CNC(=O)c1c(-c2ccc(F)cc2)oc2cc(N(C)S(C)(=O)=O)c(-c3cn4c(-c5ccc(Cl)cc5)cnc4cn3)cc12 [Compound 93] | 47.9 nM | 7.9 nM
12 | CNC(=O)c1c(-c2ccc(F)cc2)oc2cc(N(C)S(C)(=O)=O)c(-c3ccc4ncc(-c5ccc(C(F)(F)F)cc5)n4n3)cc12 [Compound 94, 2-(4-fluorophenyl)-N-methyl-6-(N-methylmethylsulfonamido)-5-(3-(4-(trifluoromethyl)phenyl)imidazo[1,2-b]pyridazin-6-yl)benzofuran-3-carboxamide] | 75.7 nM | 12.3 nM
13 | CNC(=O)c1c(-c2ccc(F)cc2)oc2cc(N(C)S(C)(=O)=O)c(-c3ccc4ncc(-c5ccc(F)cc5)n4n3)cc12 [Compound 95] | 85.9 nM | 44 nM
14 | CNC(=O)c1c(-c2ccc(F)cc2)oc2cc(N(C)S(C)(=O)=O)c(-c3ccc4nnc(-c5ccc(C(F)(F)F)cc5)n4n3)cc12 [Compound 96, 2-(4-fluorophenyl)-N-methyl-6-(N-methylmethylsulfonamido)-5-(3-(4-(trifluoromethyl)phenyl)-[1,2,4]triazolo[4,3-b]pyridazin-6-yl)benzofuran-3-carboxamide] | 34.5 nM | 16.5 nM
15 | CNC(=O)c1c(-c2ccc(F)cc2)oc2cc(N(C)S(C)(=O)=O)c(-c3cc(-c4nc5ncccc5o4)c4occc4c3)cc12 [Compound 97, 2-(4-fluorophenyl)-N-methyl-6-(N-methylmethylsulfonamido)-7′-(oxazolo[4,5-b]pyridin-2-yl)-[5,5′-bibenzofuran]-3-carboxamide] | 2.7 nM | 1.3 nM
16 | CNC(=O)c1c(-c2ccc(F)cc2)oc2cc(N(C)S(C)(=O)=O)c(-c3cc(-c4nc5c(F)cccc5o4)c4occc4c3)cc12 [Compound 98] | 3.7 nM | 4.1 nM
17 | CNC(=O)c1c(-c2ccc(F)cc2)oc2cc(N(C)S(C)(=O)=O)c(-c3cc(-c4cc5ccccc5[nH]4)c4nc(C)cn4c3)cc12 [Compound 99, 5-(8-(1H-indol-2-yl)-2-methylimidazo[1,2-a]pyridin-6-yl)-2-(4-fluorophenyl)-N-methyl-6-(N-methylmethylsulfonamido)benzofuran-3-carboxamide] | 3.1 nM | 5.2 nM
18 | CNC(=O)c1c(-c2ccc(F)cc2)oc2cc(N(C)S(C)(=O)=O)c(-c3ccc4c(n3)nc(-c3ccccc3)n4C(C)(C)C)cc12 [Compound 100, 5-(1-(tert-butyl)-2-phenyl-1H-imidazo[4,5-b]pyridin-5-yl)-2-(4-fluorophenyl)-N-methyl-6-(N-methylmethylsulfonamido)benzofuran-3-carboxamide] | 297 nM | 73 nM
19 | CNC(=O)c1c(-c2ccc(F)cc2)oc2cc(N(C)S(C)(=O)=O)c(-c3ccc4[nH]c(-c5ccccc5)nc4n3)cc12 [Compound 101] | 79.1 nM | 17 nM
20 | CNC(=O)c1c(-c2ccc(F)cc2)oc2cc(N(C)S(C)(=O)=O)c(-c3ccc4[nH]c(-c5ccccc5)nc4c3)cc12 [Compound 102] | 14.6 nM | 5.1 nM
21 | CNC(=O)c1c(-c2ccc(F)cc2)oc2cc(N(C)S(C)(=O)=O)c(-c3ccc4[nH]c(-c5ccccc5)cc4c3)cc12 [Compound 103, 2-(4-fluorophenyl)-N-methyl-6-(N-methylmethylsulfonamido)-5-(2-phenyl-1H-indol-5-yl)benzofuran-3-carboxamide] | 1100 nM | 101 nM
22 | CNC(=O)c1c(-c2ccc(F)cc2)oc2cc(N(C)S(C)(=O)=O)c(-c3ccc4c(ccn4C(=O)OC(C)(C)C)c3)cc12 [Compound 104, tert-butyl 5-(2-(4-fluorophenyl)-3-(methylcarbamoyl)-6-(N-methylmethylsulfonamido)benzofuran-5-yl)-1H-indole-1-carboxylate] | 179 nM | 18.9 nM
23 | CNC(=O)c1c(-c2ccc(F)cc2)oc2cc(N(C)S(C)(=O)=O)c(-c3ccc4cnn(-c5ccc(F)cc5)c4c3)cc12 [Compound 105, 2-(4-fluorophenyl)-5-(1-(4-fluorophenyl)-1H-indazol-6-yl)-N-methyl-6-(N-methylmethylsulfonamido)benzofuran-3-carboxamide] | 5.2 nM | 2.8 nM
24 | CNC(=O)c1c(-c2ccc(F)cc2)oc2cc(N(C)S(C)(=O)=O)c(-c3ccc4cnn(-c5ccc(C(F)(F)F)cc5)c4c3)cc12 [Compound 107] | 8.3 nM | 6.1 nM
25 | CNC(=O)c1c(-c2ccc(F)cc2)oc2cc(N(C)S(C)(=O)=O)c(-c3ccc4cnn(-c5ccc(C#N)cc5)c4c3)cc12 [Compound 108] | 27.6 nM | 12.3 nM
26 | CNC(=O)c1c(-c2ccc(F)cc2)oc2cc(N(C)S(C)(=O)=O)c(-c3cc(F)c4nc(C)n(-c5ccc(F)c(C(N)=O)c5)c4c3)cc12 [Compound 109, 5-(1-(3-carbamoyl-4-fluorophenyl)-4-fluoro-2-methyl-1H-benzo[d]imidazol-6-yl)-2-(4-fluorophenyl)-N-methyl-6-(N-methylmethylsulfonamido)benzofuran-3-carboxamide] | 110 nM | 21.1 nM
27 | CNC(=O)c1c(-c2ccc(F)cc2)oc2cc(N(C)S(C)(=O)=O)c(-c3cc(F)c4ncn(-c5ccc(F)c(C(N)=O)c5)c4c3)cc12 [Compound 110] | 111 nM | 13.8 nM
28 | CNC(=O)c1c(-c2ccc(F)cc2)oc2cc(N(C)S(C)(=O)=O)c(-c3ccc4nnc(-c5ccc(F)cc5)n4c3)cc12 [Compound 111, 2-(4-fluorophenyl)-5-(3-(4-fluorophenyl)-[1,2,4]triazolo[4,3-a]pyridin-6-yl)-N-methyl-6-(N-methylmethylsulfonamido)benzofuran-3-carboxamide] | 4.8 nM | 1.9 nM
29 | CNC(=O)c1c(-c2ccc(F)cc2)oc2cc(N(C)S(C)(=O)=O)c(-c3ccc4ncc(-c5ccc(F)cc5)n4c3)cc12 [Compound 112, 2-(4-fluorophenyl)-5-(3-(4-fluorophenyl)imidazo[1,2-a]pyridin-6-yl)-N-methyl-6-(N-methylmethylsulfonamido)benzofuran-3-carboxamide] | 12.4 nM | 7.1 nM
30 | CNC(=O)c1c(-c2ccc(F)cc2)oc2cc(N(C)S(C)(=O)=O)c(-c3ccc4nc(-c5ccc(F)cc5)cn4n3)cc12 [Compound 113] | 186 nM | 14.9 nM

Source: US20150246902A1, “SUBSTITUED BENZOFURAN COMPOUNDS AND METHODS OF USE THEREOF FOR THE TREATMENT OF VIRAL DISEASES” (priority 2011, published 2015)
